Source: patent US12077503B2, “Substituted cyclic amides and their use as herbicides” (FMC CORPORATION, priority 2015, dated 2024)

Assays:
Format in all cases: in vivo
[1] = tested on: corn (Zea mays); test: Test G Post-Emergence Protocol; details: Zea mays, post-emergence, 312 h; for plant injury at 15.625 g/ha: 15.625 g ai/ha, evaluated after 13 days (100=total damage to plant; 0=no damage to plant), read-out: Corn damage rating; for plant injury at 62.5 g/ha: 62.5 g ai/ha, read-out: Corn damage rating (100=total damage to plant; 0=no damage to plant); for plant injury at 62.5 g/ha / plant injury at 250 g/ha: evaluated after 13 days; for plant injury at 250 g/ha: 250 g ai/ha, read-out: damage to plant, Corn (100=total damage to plant; 0=no damage to plant)
Summary of the method: (§1)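 Sow in soil; grow 8 d (24/16 °C, 14 h light, 65% humidity); spray 15.625/62.5/250 g/ha in acetone:water 50:50 + 0.5% Tween 20; grow on, water twice daily; score damage 0–100 at 13 d.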

[2] = tested on: ivy-leaved morning glory (Ipomoea hederacea); test: Test G Post-Emergence Protocol; details: Ipomoea, post-emergence, 312 h; for pest or weed control at 15.625 g/ha: 15.625 g ai/ha, evaluated after 13 days (100=total damage to plant; 0=no damage to plant), read-out: Morningglory, Ivy-leaved damage rating; for pest or weed control at 62.5 g/ha: 62.5 g ai/ha, read-out: Morningglory, Ivy-leaved damage rating (100=total damage to plant; 0=no damage to plant); for pest or weed control at 62.5 g/ha / pest or weed control at 250 g/ha: evaluated after 13 days; for pest or weed control at 250 g/ha: 250 g ai/ha, read-out: damage to plant, Morningglory, Ivy-leaved (100=total damage to plant; 0=no damage to plant)
Summary of the method: as §1

[3] = tested on: redroot pigweed (Amaranthus retroflexus); test: Test G Post-Emergence Protocol; details: Amaranthus retroflexus, post-emergence, 312 h; for pest or weed control at 15.625 g/ha: 15.625 g ai/ha, evaluated after 13 days (100=total damage to plant; 0=no damage to plant), read-out: Pigweed, Redroot damage rating; for pest or weed control at 62.5 g/ha: 62.5 g ai/ha, read-out: Pigweed, Redroot damage rating (100=total damage to plant; 0=no damage to plant); for pest or weed control at 62.5 g/ha / pest or weed control at 250 g/ha: evaluated after 13 days; for pest or weed control at 250 g/ha: 250 g ai/ha, read-out: damage to plant, Pigweed, Redroot (100=total damage to plant; 0=no damage to plant)
Summary of the method: as §1

[4] = tested on: giant foxtail (Setaria faberi); test: Test G Post-Emergence Protocol; details: Setaria faberi, post-emergence, 312 h; for pest or weed control at 15.625 g/ha: 15.625 g ai/ha, evaluated after 13 days (100=total damage to plant; 0=no damage to plant), read-out: Foxtail, Giant damage rating; for pest or weed control at 62.5 g/ha: 62.5 g ai/ha, read-out: Foxtail, Giant damage rating (100=total damage to plant; 0=no damage to plant); for pest or weed control at 62.5 g/ha / pest or weed control at 250 g/ha: evaluated after 13 days; for pest or weed control at 250 g/ha: 250 g ai/ha, read-out: damage to plant, Foxtail, Giant (100=total damage to plant; 0=no damage to plant)
Summary of the method: as §1

[5] = tested on: velvetleaf (Abutilon theophrasti); test: Test G Post-Emergence Protocol; details: Abutilon theophrasti, post-emergence, 312 h; for pest or weed control at 15.625 g/ha: 15.625 g ai/ha, evaluated after 13 days (100=total damage to plant; 0=no damage to plant), read-out: Velvetleaf damage rating; for pest or weed control at 62.5 g/ha: 62.5 g ai/ha, read-out: Velvetleaf damage rating (100=total damage to plant; 0=no damage to plant); for pest or weed control at 62.5 g/ha / pest or weed control at 250 g/ha: evaluated after 13 days; for pest or weed control at 250 g/ha: 250 g ai/ha, read-out: damage to plant, Velvetleaf (100=total damage to plant; 0=no damage to plant)
Summary of the method: as §1

[6] = tested on: barnyardgrass (Echinochloa crus-galli); test: Test G Post-Emergence Protocol; details: Echinochloa crus-galli, post-emergence, 312 h; for pest or weed control at 15.625 g/ha: 15.625 g ai/ha, evaluated after 13 days (100=total damage to plant; 0=no damage to plant), read-out: Barnyardgrass damage rating; for pest or weed control at 62.5 g/ha: 62.5 g ai/ha, read-out: Barnyardgrass damage rating (100=total damage to plant; 0=no damage to plant); for pest or weed control at 62.5 g/ha / pest or weed control at 250 g/ha: evaluated after 13 days; for pest or weed control at 250 g/ha: 250 g ai/ha, read-out: damage to plant, Barnyardgrass (100=total damage to plant; 0=no damage to plant)
Summary of the method: as §1

[7] = tested on: corn (Zea mays); test: Test G Pre-Emergence Protocol; details: Zea mays, pre-emergence, 312 h, evaluated after 13 days; for plant injury at 15.625 g/ha: 15.625 g ai/ha; for plant injury at 15.625 g/ha / plant injury at 250 g/ha: read-out: Corn damage rating (100=total damage to plant; 0=no damage to plant); for plant injury at 62.5 g/ha: 62.5 g ai/ha, 100=total damage to plant, 0=no damage to plant, read-out: plant damage rating, Corn; for plant injury at 250 g/ha: 250 g ai/ha
Summary of the method: (§2)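 Scores are visual damage ratings from 0 (no damage) to 100 (total plant kill), taken 13 days after treatment. Compound was sprayed one day post-sowing at 15.625, 62.5 or 250 g/ha in 50:50 acetone/water with 0.5% Tween 20.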

[8] = tested on: ivy-leaved morning glory (Ipomoea hederacea); test: Test G Pre-Emergence Protocol; details: Ipomoea, pre-emergence, 312 h, evaluated after 13 days; for pest or weed control at 15.625 g/ha: 15.625 g ai/ha, read-out: Morning-glory, Ivy-leaved damage rating (100=total damage to plant; 0=no damage to plant); for pest or weed control at 62.5 g/ha: 62.5 g ai/ha, 100=total damage to plant, 0=no damage to plant, read-out: plant damage rating, Morningglory, Ivy-leaved; for pest or weed control at 250 g/ha: 250 g ai/ha, read-out: Morningglory, Ivy-leaved damage rating (100=total damage to plant; 0=no damage to plant)
Summary of the method: as §2

[9] = tested on: redroot pigweed (Amaranthus retroflexus); test: Test G Pre-Emergence Protocol; details: Amaranthus retroflexus, pre-emergence, 312 h, evaluated after 13 days; for pest or weed control at 15.625 g/ha: 15.625 g ai/ha; for pest or weed control at 15.625 g/ha / pest or weed control at 250 g/ha: read-out: Pigweed, Redroot damage rating (100=total damage to plant; 0=no damage to plant); for pest or weed control at 62.5 g/ha: 62.5 g ai/ha, 100=total damage to plant, 0=no damage to plant, read-out: plant damage rating, Pigweed, Redroot; for pest or weed control at 250 g/ha: 250 g ai/ha
Summary of the method: as §2

[10] = tested on: giant foxtail (Setaria faberi); test: Test G Pre-Emergence Protocol; details: Setaria faberi, pre-emergence, 312 h, evaluated after 13 days; for pest or weed control at 15.625 g/ha: 15.625 g ai/ha; for pest or weed control at 15.625 g/ha / pest or weed control at 250 g/ha: read-out: Foxtail, Giant damage rating (100=total damage to plant; 0=no damage to plant); for pest or weed control at 62.5 g/ha: 62.5 g ai/ha, 100=total damage to plant, 0=no damage to plant, read-out: plant damage rating, Foxtail, Giant; for pest or weed control at 250 g/ha: 250 g ai/ha
Summary of the method: as §2

[11] = tested on: velvetleaf (Abutilon theophrasti); test: Test G Pre-Emergence Protocol; details: Abutilon theophrasti, pre-emergence, 312 h, evaluated after 13 days; for pest or weed control at 15.625 g/ha: 15.625 g ai/ha; for pest or weed control at 15.625 g/ha / pest or weed control at 250 g/ha: read-out: Velvetleaf damage rating (100=total damage to plant; 0=no damage to plant); for pest or weed control at 62.5 g/ha: 62.5 g ai/ha, 100=total damage to plant, 0=no damage to plant, read-out: plant damage rating, Velvetleaf; for pest or weed control at 250 g/ha: 250 g ai/ha
Summary of the method: as §2

[12] = tested on: barnyardgrass (Echinochloa crus-galli); test: Test G Pre-Emergence Protocol; details: Echinochloa crus-galli, pre-emergence, 312 h, evaluated after 13 days; for pest or weed control at 15.625 g/ha: 15.625 g ai/ha, read-out: Barnyard grass damage rating (100=total damage to plant; 0=no damage to plant); for pest or weed control at 62.5 g/ha: 62.5 g ai/ha, 100=total damage to plant, 0=no damage to plant, read-out: plant damage rating, Barnyardgrass; for pest or weed control at 250 g/ha: 250 g ai/ha, read-out: Barnyardgrass damage rating (100=total damage to plant; 0=no damage to plant)
Summary of the method: as §2

Row | Compound | plant injury at 15.625 g/ha [1] [%] | plant injury at 62.5 g/ha [1] [%] | plant injury at 250 g/ha [1] [%] | pest or weed control at 15.625 g/ha [2] [%] | pest or weed control at 62.5 g/ha [2] [%] | pest or weed control at 250 g/ha [2] [%] | pest or weed control at 15.625 g/ha [3] [%] | pest or weed control at 62.5 g/ha [3] [%] | pest or weed control at 250 g/ha [3] [%] | pest or weed control at 15.625 g/ha [4] [%] | pest or weed control at 62.5 g/ha [4] [%] | pest or weed control at 250 g/ha [4] [%] | pest or weed control at 15.625 g/ha [5] [%] | pest or weed control at 62.5 g/ha [5] [%] | pest or weed control at 250 g/ha [5] [%] | pest or weed control at 15.625 g/ha [6] [%] | pest or weed control at 62.5 g/ha [6] [%] | pest or weed control at 250 g/ha [6] [%] | plant injury at 15.625 g/ha [7] [%] | plant injury at 62.5 g/ha [7] [%] | other results
1 | CN1C[C@@H](c2ccc(C(F)(F)F)cc2)[C@H](C(=O)Nc2cccc(F)c2C(F)(F)F)C1=O (racemic) [Compound 1609] | 10 | 10 | 60 | 20 | 20 | 70 | 30 | 70 | 70 | 70 | 80 | 80 | 0 | 20 | 50 | 20 | 70 | 70 | 0 | 10 | plant injury at 250 g/ha [7]: 40%; pest or weed control at 15.625 g/ha [8]: 10%; pest or weed control at 62.5 g/ha [8]: 20%; pest or weed control at 250 g/ha [8]: 70%; pest or weed control at 15.625 g/ha [9]: 20%; pest or weed control at 62.5 g/ha [9]: 40%; pest or weed control at 250 g/ha [9]: 70%; pest or weed control at 15.625 g/ha [10]: 70%; pest or weed control at 62.5 g/ha [10]: 80%; pest or weed control at 250 g/ha [10]: 80%; pest or weed control at 15.625 g/ha [11]: 10%; pest or weed control at 62.5 g/ha [11]: 10%; pest or weed control at 250 g/ha [11]: 30%; pest or weed control at 15.625 g/ha [12]: 20%; pest or weed control at 62.5 g/ha [12]: 50%; pest or weed control at 250 g/ha [12]: 80%
2 | CN1C[C@@H](c2ccc(C(F)(F)F)cc2)[C@H](C(=O)Nc2ccc(F)c(Cl)c2F)C1=O (racemic) [Compound 1628] | 0 | 0 | 50 | 20 | 20 | 50 | 10 | 50 | 60 | 70 | 80 | 80 | 30 | 20 | 20 | 30 | 70 | 70 | 0 | 0 | plant injury at 250 g/ha [7]: 0%; pest or weed control at 15.625 g/ha [8]: 20%; pest or weed control at 62.5 g/ha [8]: 0%; pest or weed control at 250 g/ha [8]: 20%; pest or weed control at 15.625 g/ha [9]: 0%; pest or weed control at 62.5 g/ha [9]: 30%; pest or weed control at 250 g/ha [9]: 50%; pest or weed control at 15.625 g/ha [10]: 50%; pest or weed control at 62.5 g/ha [10]: 50%; pest or weed control at 250 g/ha [10]: 80%; pest or weed control at 15.625 g/ha [11]: 0%; pest or weed control at 62.5 g/ha [11]: 0%; pest or weed control at 250 g/ha [11]: 0%; pest or weed control at 15.625 g/ha [12]: 10%; pest or weed control at 62.5 g/ha [12]: 0%; pest or weed control at 250 g/ha [12]: 70%
